Laboratory results published in ChEMBL document CHEMBL1201862, “PubChem BioAssay data set” (2004).
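Dose response: 5 concentrations. Exposure: 48 h. Format: 96-well plates. Endpoint: linear interpolation; highest concentration if not reached. The concentration for 50% growth inhibition is given as GI50.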 Active and inactive are the calls of the source. Cut-off read from the data, not from the text of the source: active = GI50 up to about 1.1 µM and inactive = higher.

How the values were obtained:
Experiment in all cases: NCI anticancer screen, dose series, 48 h
A498 = test system: A498
ACHN = test system: ACHN
CAKI-1 = test system: CAKI-1
HCC 2998 = test system: HCC 2998
HOP-62 = test system: HOP-62
KM12 = test system: KM12
LOX IMVI = test system: LOX IMVI
MOLT-4 = test system: MOLT-4
NCI-H23 = test system: NCI-H23
OVCAR-3 = test system: OVCAR-3
OVCAR-5 = test system: OVCAR-5
OVCAR-8 = test system: OVCAR-8
RPMI-8226 = test system: RPMI-8226
SF-268 = test system: SF-268
SK-MEL-5 = test system: SK-MEL-5
TK-10 = test system: TK-10
UACC-257 = test system: UACC-257
UO-31 = test system: UO-31
SN12C = test system: SN12C

Measured: GI50

O=C(N/N=C(/c1nc2ccc(Cl)cc2[nH]c1=O)C(O)c1ccc(Cl)cc1Cl)c1ccncc1 (stereo not drawn)
inactive: A498 > 100 µM | ACHN > 100 µM | CAKI-1 > 100 µM | HCC 2998 > 100 µM | HOP-62 > 100 µM | KM12 > 100 µM | LOX IMVI > 100 µM | MOLT-4 > 100 µM | NCI-H23 > 100 µM | OVCAR-3 > 100 µM | OVCAR-5 > 100 µM | OVCAR-8 > 100 µM | RPMI-8226 > 100 µM | SF-268 > 100 µM | SK-MEL-5 > 100 µM | TK-10 > 100 µM | UACC-257 > 100 µM | UO-31 > 100 µM

CCc1cccc(CC)c1Nc1nc2c(s1)C(=O)c1ccccc1C2=O
inactive: A498 > 10 µM | ACHN 17.6 µM | CAKI-1 16.4 µM | HCC 2998 18.7 µM | HOP-62 16 µM | KM12 18.1 µM | LOX IMVI 18 µM | MOLT-4 23.2 µM | NCI-H23 15.3 µM | OVCAR-3 13.7 µM | OVCAR-5 20.3 µM | RPMI-8226 24.7 µM | SF-268 16.9 µM | SK-MEL-5 20.7 µM | SN12C 15.8 µM | TK-10 21.2 µM | UACC-257 19.5 µM | UO-31 15.4 µM

Cc1ccc(C)c(N2C(=O)C(=O)C(c3nc4ccccc4s3)C(=O)C2=O)c1
inactive: A498 > 100 µM | ACHN > 100 µM | CAKI-1 > 100 µM | HCC 2998 > 100 µM | HOP-62 > 100 µM | KM12 > 100 µM | LOX IMVI > 100 µM | MOLT-4 > 100 µM | NCI-H23 > 100 µM | OVCAR-3 > 100 µM | OVCAR-5 71.8 µM | OVCAR-8 > 100 µM | RPMI-8226 > 100 µM | SF-268 > 100 µM | SK-MEL-5 > 100 µM | SN12C > 100 µM | TK-10 > 100 µM | UACC-257 > 100 µM | UO-31 > 100 µM

COc1cc(C2C(C(=O)Nc3ccc([N+](=O)[O-])cc3)=C(C)NC(C)=C2C(=O)Nc2ccc([N+](=O)[O-])cc2)ccc1O
inactive: A498 36.7 µM | ACHN 24.3 µM | CAKI-1 31 µM | HCC 2998 18.4 µM | HOP-62 18.4 µM | KM12 18.7 µM | LOX IMVI 14.6 µM | MOLT-4 19.9 µM | NCI-H23 26.7 µM | OVCAR-3 22.7 µM | OVCAR-5 35.6 µM | OVCAR-8 19.9 µM | RPMI-8226 24.3 µM | SF-268 23.2 µM | SK-MEL-5 31.8 µM | SN12C 18.4 µM | TK-10 18.2 µM | UACC-257 24.2 µM | UO-31 19.1 µM

CC(=O)C1=C(C)Cn2c(=O)c3ccccc3c(=O)n2C1
inactive: A498 82 µM | ACHN > 100 µM | CAKI-1 > 100 µM | HCC 2998 > 100 µM | HOP-62 > 100 µM | KM12 > 100 µM | LOX IMVI > 100 µM | MOLT-4 > 100 µM | NCI-H23 > 100 µM | OVCAR-3 > 100 µM | OVCAR-5 > 100 µM | OVCAR-8 > 100 µM | RPMI-8226 > 100 µM | SF-268 > 100 µM | SK-MEL-5 > 100 µM | SN12C > 100 µM | TK-10 > 100 µM | UACC-257 > 100 µM | UO-31 > 100 µM

OC(c1ccccc1)c1c(-c2ccccc2)[nH]c(-c2ccccc2)c1C(O)c1ccccc1 (stereo not drawn)
inactive: A498 3.79 µM | ACHN 3.17 µM | CAKI-1 2.55 µM | HCC 2998 7.24 µM | HOP-62 4.58 µM | KM12 3.25 µM | LOX IMVI 2.19 µM | MOLT-4 2.94 µM | NCI-H23 3.52 µM | OVCAR-3 2.5 µM | OVCAR-5 2.77 µM | RPMI-8226 2.09 µM | SF-268 4.16 µM | SK-MEL-5 2.55 µM | SN12C 2.38 µM | TK-10 4.44 µM | UACC-257 3.04 µM | UO-31 1.45 µM

COc1ccc(S(=O)(=O)NNS(C)(=O)=O)cc1
inactive: A498 > 100 µM | ACHN > 100 µM | CAKI-1 > 100 µM | HCC 2998 > 100 µM | HOP-62 > 100 µM | KM12 > 100 µM | LOX IMVI > 100 µM | MOLT-4 > 100 µM | NCI-H23 > 100 µM | OVCAR-8 > 100 µM | RPMI-8226 > 100 µM | SF-268 > 100 µM | SK-MEL-5 > 100 µM | SN12C > 100 µM | TK-10 > 100 µM | UACC-257 > 100 µM | UO-31 > 100 µM

O=C(Nc1nc2ncn(CCOC(=O)c3ccccc3)c2c(=O)[nH]1)c1ccccc1
inactive: A498 > 100 µM | ACHN > 81.1 µM | CAKI-1 20.7 µM | HCC 2998 97.9 µM | HOP-62 20.4 µM | KM12 3.34 µM | LOX IMVI 5.92 µM | MOLT-4 6.64 µM | NCI-H23 20.1 µM | OVCAR-3 29.5 µM | OVCAR-5 > 100 µM | OVCAR-8 33.3 µM | RPMI-8226 6.1 µM | SF-268 26.2 µM | SK-MEL-5 5.51 µM | SN12C 11.8 µM | TK-10 > 100 µM | UACC-257 > 95.7 µM | UO-31 51.9 µM

CN(C)C(c1ccccc1)C(O)c1ccccc1 (stereo not drawn)
inactive: A498 > 100 µM | ACHN > 100 µM | CAKI-1 > 100 µM | HCC 2998 > 100 µM | HOP-62 > 100 µM | KM12 > 100 µM | LOX IMVI > 100 µM | MOLT-4 > 100 µM | NCI-H23 > 100 µM | OVCAR-3 > 100 µM | RPMI-8226 > 100 µM | SF-268 > 100 µM | SN12C > 100 µM | TK-10 > 100 µM | UACC-257 > 100 µM | UO-31 > 100 µM

CC(C)C1SCc2nc3ccccc3n21 (stereo not drawn)
inactive: A498 30.1 µM | ACHN 19.7 µM | CAKI-1 40.1 µM | HCC 2998 78 µM | HOP-62 50.8 µM | KM12 17.8 µM | LOX IMVI 35.4 µM | MOLT-4 20 µM | NCI-H23 25.9 µM | OVCAR-3 39.8 µM | OVCAR-5 77.3 µM | OVCAR-8 40.2 µM | RPMI-8226 31.5 µM | SF-268 64.3 µM | SK-MEL-5 16.4 µM | SN12C 21.8 µM | TK-10 38.5 µM | UACC-257 32.8 µM | UO-31 44.8 µM

Cc1cccc(Nc2cn(CCOc3ccccc3)c(=O)[nH]c2=O)c1
inactive: A498 > 100 µM | ACHN 33.2 µM | CAKI-1 41.2 µM | HCC 2998 24.8 µM | HOP-62 29.8 µM | KM12 31.3 µM | LOX IMVI 11.9 µM | MOLT-4 36.9 µM | NCI-H23 31 µM | OVCAR-3 18.7 µM | OVCAR-5 19.4 µM | RPMI-8226 34 µM | SF-268 30 µM | SK-MEL-5 25.8 µM | SN12C 24.6 µM | UACC-257 43.7 µM | UO-31 21.4 µM

N#C/C(=C\c1cc2ccccc2c2ccccc12)c1ccccc1
inactive: A498 9.18 µM | ACHN 14.5 µM | CAKI-1 7.76 µM | HCC 2998 11 µM | HOP-62 2.49 µM | KM12 5.98 µM | LOX IMVI 9.51 µM | MOLT-4 7.26 µM | NCI-H23 > 30.5 µM | OVCAR-3 3.45 µM | OVCAR-5 45.4 µM | OVCAR-8 30 µM | RPMI-8226 6.59 µM | SF-268 8.17 µM | SK-MEL-5 5.38 µM | SN12C 9.59 µM | TK-10 > 29.7 µM | UACC-257 9.62 µM | UO-31 22.2 µM

Brc1ccc(/C=N/C23CC4CC(CC(C4)C2)C3)cc1
inactive: A498 > 100 µM | ACHN > 100 µM | CAKI-1 > 100 µM | HCC 2998 > 100 µM | HOP-62 > 100 µM | KM12 > 100 µM | LOX IMVI > 100 µM | MOLT-4 > 100 µM | NCI-H23 > 100 µM | OVCAR-3 > 100 µM | OVCAR-5 > 100 µM | OVCAR-8 > 100 µM | RPMI-8226 > 100 µM | SF-268 > 100 µM | SK-MEL-5 > 100 µM | SN12C > 100 µM | TK-10 > 100 µM | UACC-257 > 100 µM | UO-31 > 100 µM

Cc1cc(=O)[nH]c(-n2[nH]c(C)c(CCO)c2=O)n1
inactive: A498 > 100 µM | ACHN > 100 µM | CAKI-1 > 100 µM | HCC 2998 > 100 µM | HOP-62 > 100 µM | KM12 > 100 µM | LOX IMVI > 100 µM | NCI-H23 > 100 µM | OVCAR-3 > 100 µM | OVCAR-5 > 100 µM | OVCAR-8 > 100 µM | RPMI-8226 > 100 µM | SF-268 > 100 µM | SK-MEL-5 > 100 µM | SN12C > 100 µM | TK-10 > 100 µM | UACC-257 > 100 µM | UO-31 > 100 µM

Cn1cc(C(=O)NCCC(=N)N)cc1NC(=O)C1=[N+](C)C=C(NC(=O)c2cccc(C(=O)NC3=CC(C(=O)Nc4cc(C(=O)NCCC(=N)N)cn4C)=[N+](C)C3)c2)C1
inactive: A498 > 100 µM | ACHN > 100 µM | CAKI-1 > 100 µM | HCC 2998 99.8 µM | HOP-62 > 100 µM | KM12 36.3 µM | LOX IMVI > 100 µM | MOLT-4 > 100 µM | NCI-H23 > 100 µM | OVCAR-3 > 100 µM | OVCAR-8 > 100 µM | RPMI-8226 > 100 µM | SF-268 > 100 µM | SK-MEL-5 42.3 µM | SN12C 88.5 µM | TK-10 > 100 µM | UACC-257 93.1 µM | UO-31 > 100 µM
